Measured values from patent US20230085307A1, “PYRIDAZINONE COMPOUND AND HERBICIDE” (NISSAN CHEMICAL CORPORATION, priority 2019, published 2023).

Assays:
[1] = tested on: green foxtail; assay: Test Example 4: herbicidal effect by soil treatment (Table 19, symbol G); type: in vivo, green foxtail (Setaria viridis); details: AAH 320 g/ha
Summary of the method: (§1)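 Step 1: sow seeds in sterilized diluvial soil, cover ~1.5 cm. Step 2: spray diluted emulsion onto soil surface at predetermined rate. Step 3: greenhouse, 25–30° C, three weeks. Step 4: grade effect on each plant by earlier criteria.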

[2] = tested on: barnyard grass; assay: Test Example 3: herbicidal effect by foliage application, Wagner pot (Table 18, symbol H); type: in vivo, barnyard grass (Echinochloa crus-galli); details: 320 g/ha
Summary of the method: (§2)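 Plants were sown in alluvial soil held under 0.1–0.5 cm standing water and grown 14 days in a greenhouse at 25–30 °C. An emulsifiable formulation, water-diluted to the set dose, was then sprayed onto the foliage, and effects were scored three weeks later using previously defined criteria.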

[3] = tested on: barnyard grass; assay: Test Example 4: herbicidal effect by soil treatment (Table 19, symbol H); type: in vivo, barnyard grass (Echinochloa crus-galli); details: AAH 320 g/ha
Summary of the method: as §1

[4] = tested on: blackgrass; assay: Test Example 5: herbicidal effect by foliage application, plastic box (Table 20, symbol J); type: in vivo, blackgrass (Alopecurus myosuroides); details: foliage application, 320 g/ha, 3 weeks after application
Summary of the method: (§3)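 Foliar spray test: emulsion formulation diluted in water to a set application rate, sprayed onto 14-day-old plants raised in diluvial soil at 25° C to 30° C under glass. Both herbicidal effect and crop effect rated visually three weeks later.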

[5] = tested on: lambsquarters; assay: Test Example 4: herbicidal effect by soil treatment (Table 19, symbol O); type: in vivo, lambsquarters (Chenopodium album); details: AAH 320 g/ha
Summary of the method: as §1

[6] = tested on: barnyard grass; assay: Test Example 5: herbicidal effect by foliage application, plastic box (Table 20, symbol H); type: in vivo, barnyard grass (Echinochloa crus-galli); details: foliage application, 320 g/ha, 3 weeks after application
Summary of the method: as §3

[7] = tested on: southern crabgrass; assay: Test Example 5: herbicidal effect by foliage application, plastic box (Table 20, symbol F); type: in vivo, southern crabgrass (Digitaria ciliaris); details: foliage application, 320 g/ha, 3 weeks after application
Summary of the method: as §3

[8] = tested on: Italian ryegrass; assay: Test Example 4: herbicidal effect by soil treatment (Table 19, symbol K); type: in vivo, Italian ryegrass (Lolium multiflorum); details: AAH 320 g/ha
Summary of the method: as §1

[9] = tested on: Chinese sprangletop; assay: Test Example 3: herbicidal effect by foliage application, Wagner pot (Table 18, symbol D); type: in vivo, chinese sprangletop (Leptochloa chinensis); details: 320 g/ha
Summary of the method: as §2

[10] = tested on: wild oat; assay: Test Example 5: herbicidal effect by foliage application, plastic box (Table 20, symbol I); type: in vivo, wild oat (Avena fatua); details: foliage application, 320 g/ha, 3 weeks after application
Summary of the method: as §3

[11] = tested on: green foxtail; assay: Test Example 5: herbicidal effect by foliage application, plastic box (Table 20, symbol G); type: in vivo, green foxtail (Setaria viridis); details: foliage application, 320 g/ha, 3 weeks after application
Summary of the method: as §3

[12] = tested on: southern crabgrass; assay: Test Example 4: herbicidal effect by soil treatment (Table 19, symbol F); type: in vivo, southern crabgrass (Digitaria ciliaris); details: AAH 320 g/ha
Summary of the method: as §1

[13] = tested on: velvetleaf; assay: Test Example 4: herbicidal effect by soil treatment (Table 19, symbol M); type: in vivo, velvetleaf (Abutilon theophrasti); details: AAH 320 g/ha
Summary of the method: as §1

[14] = tested on: redroot pigweed; assay: Test Example 4: herbicidal effect by soil treatment (Table 19, symbol N); type: in vivo, redroot pigweed (Amaranthus retroflexus); details: AAH 320 g/ha
Summary of the method: as §1

[15] = tested on: velvetleaf; assay: Test Example 5: herbicidal effect by foliage application, plastic box (Table 20, symbol M); type: in vivo, velvetleaf (Abutilon theophrasti); details: foliage application, 320 g/ha, 3 weeks after application
Summary of the method: as §3

[16] = tested on: rice flat sedge; assay: Test Example 3: herbicidal effect by foliage application, Wagner pot (Table 18, symbol E); type: in vivo, rice flat sedge (Cyperus iria); details: 320 g/ha
Summary of the method: as §2

[17] = tested on: persian speedwell; assay: Test Example 4: herbicidal effect by soil treatment (Table 19, symbol R); type: in vivo, Persian speedwell (Veronica persica); details: AAH 320 g/ha
Summary of the method: as §1

[18] = tested on: chickweed; assay: Test Example 4: herbicidal effect by soil treatment (Table 19, symbol P); type: in vivo, common chickweed (Stellaria media); details: AAH 320 g/ha
Summary of the method: as §1

[19] = tested on: false cleavers; assay: Test Example 4: herbicidal effect by soil treatment (Table 19, symbol Q); type: in vivo, false cleavers (Galium spurium); details: AAH 320 g/ha
Summary of the method: as §1

[20] = tested on: windgrass; assay: Test Example 4: herbicidal effect by soil treatment (Table 19, symbol L); type: in vivo, windgrass (Apera spica-venti); details: AAH 320 g/ha
Summary of the method: as §1

[21] = tested on: Italian ryegrass; assay: Test Example 5: herbicidal effect by foliage application, plastic box (Table 20, symbol K); type: in vivo, Italian ryegrass (Lolium multiflorum); details: foliage application, 320 g/ha, 3 weeks after application
Summary of the method: as §3

[22] = tested on: blackgrass; assay: Test Example 4: herbicidal effect by soil treatment (Table 19, symbol J); type: in vivo, blackgrass (Alopecurus myosuroides); details: AAH 320 g/ha
Summary of the method: as §1

[23] = tested on: windgrass; assay: Test Example 5: herbicidal effect by foliage application, plastic box (Table 20, symbol L); type: in vivo, windgrass (Apera spica-venti); details: foliage application, 320 g/ha, 3 weeks after application
Summary of the method: as §3

[24] = tested on: wild oat; assay: Test Example 4: herbicidal effect by soil treatment (Table 19, symbol I); type: in vivo, wild oat (Avena fatua); details: AAH 320 g/ha
Summary of the method: as §1

[25] = tested on: persian speedwell; assay: Test Example 5: herbicidal effect by foliage application, plastic box (Table 20, symbol R); type: in vivo, Persian speedwell (Veronica persica); details: foliage application, 320 g/ha, 3 weeks after application
Summary of the method: as §3

[26] = tested on: lambsquarters; assay: Test Example 5: herbicidal effect by foliage application, plastic box (Table 20, symbol O); type: in vivo, lambsquarters (Chenopodium album); details: foliage application, 320 g/ha, 3 weeks after application
Summary of the method: as §3

Structure (SMILES) | G: green foxtail, herbicidal effect rating [1] | herbicidal effect on H (barnyard grass), rating 0-5 [2] | H: barnyard grass, herbicidal effect rating [3] | effect on blackgrass (J) [4] | O: lambsquarters, herbicidal effect rating [5] | effect on barnyard grass (H) [6] | effect on southern crabgrass (F) [7] | K: Italian ryegrass, herbicidal effect rating [8] | herbicidal effect on D (Chinese sprangletop), rating 0-5 [9] | effect on wild oat (I) [10] | effect on green foxtail (G) [11] | F: southern crabgrass, herbicidal effect rating [12] | M: velvetleaf, herbicidal effect rating [13] | N: redroot pigweed, herbicidal effect rating [14] | effect on velvetleaf (M) [15] | herbicidal effect on E (rice flat sedge), rating 0-5 [16] | R: persian speedwell, herbicidal effect rating [17] | P: chickweed, herbicidal effect rating [18] | Q: false cleavers, herbicidal effect rating [19] | L: windgrass, herbicidal effect rating [20] | further results
COCCOCOc1c(C)nn(C)c(=O)c1-c1c(-c2ccc(OC(C)C#N)cc2)sc2ccccc12 (racemic) [1-237] | 4 (Herbicidal rate of 70% or more and less than 90%) | 5 (Herbicidal rate of 90% or more (almost completely withered)) | 0 (Herbicidal rate of 5% or less (almost no effect)) | 4 (Herbicidal rate of 70% or more and less than 90%) | 3 (Herbicidal rate of 40% or more and less than 70%) | 4 (Herbicidal rate of 70% or more and less than 90%) | 3 (Herbicidal rate of 40% or more and less than 70%) | 3 (Herbicidal rate of 40% or more and less than 70%) | 4 (Herbicidal rate of 70% or more and less than 90%) | 3 (Herbicidal rate of 40% or more and less than 70%) | 5 (Herbicidal rate of 90% or more (almost completely withered)) | 1 (Herbicidal rate of 5% or more and less than 20%) | 1 (Herbicidal rate of 5% or more and less than 20%) | 5 (Herbicidal rate of 90% or more (almost completely withered)) | 4 (Herbicidal rate of 70% or more and less than 90%) | 4 (Herbicidal rate of 70% or more and less than 90%) | 5 (Herbicidal rate of 90% or more (almost completely withered)) | 3 (Herbicidal rate of 40% or more and less than 70%) | 0 (Herbicidal rate of 5% or less (almost no effect)) | 0 (Herbicidal rate of 5% or less (almost no effect)) | effect on Italian ryegrass (K) [21]: 4 (Herbicidal rate of 70% or more and less than 90%); J: blackgrass, herbicidal effect rating [22]: 0 (Herbicidal rate of 5% or less (almost no effect)); effect on windgrass (L) [23]: 1 (Herbicidal rate of 5% or more and less than 20%); I: wild oat, herbicidal effect rating [24]: 0 (Herbicidal rate of 5% or less (almost no effect)); effect on persian speedwell (R) [25]: 5 (Herbicidal rate of 90% or more (almost completely withered)); effect on lambsquarters (O) [26]: 5 (Herbicidal rate of 90% or more (almost completely withered))
COCCOCc1ccc(-c2sc3ccccc3c2-c2c(O)c(C)nn(C)c2=O)cc1 [1-255] | 4 (Herbicidal rate of 70% or more and less than 90%) | 5 (Herbicidal rate of 90% or more (almost completely withered)) | 5 (Herbicidal rate of 90% or more (almost completely withered)) | 4 (Herbicidal rate of 70% or more and less than 90%) | 5 (Herbicidal rate of 90% or more (almost completely withered)) | 5 (Herbicidal rate of 90% or more (almost completely withered)) | 4 (Herbicidal rate of 70% or more and less than 90%) | 4 (Herbicidal rate of 70% or more and less than 90%) | 3 (Herbicidal rate of 40% or more and less than 70%) | 0 (Herbicidal rate of 5% or less (almost no effect)) | 5 (Herbicidal rate of 90% or more (almost completely withered)) | 3 (Herbicidal rate of 40% or more and less than 70%) | 4 (Herbicidal rate of 70% or more and less than 90%) | 5 (Herbicidal rate of 90% or more (almost completely withered)) | 5 (Herbicidal rate of 90% or more (almost completely withered)) | 5 (Herbicidal rate of 90% or more (almost completely withered)) | 5 (Herbicidal rate of 90% or more (almost completely withered)) | 4 (Herbicidal rate of 70% or more and less than 90%) | 0 (Herbicidal rate of 5% or less (almost no effect)) | 0 (Herbicidal rate of 5% or less (almost no effect)) | effect on Italian ryegrass (K) [21]: 5 (Herbicidal rate of 90% or more (almost completely withered)); J: blackgrass, herbicidal effect rating [22]: 2 (Herbicidal rate of 20% or more and less than 40%); I: wild oat, herbicidal effect rating [24]: 0 (Herbicidal rate of 5% or less (almost no effect)); effect on persian speedwell (R) [25]: 5 (Herbicidal rate of 90% or more (almost completely withered)); effect on lambsquarters (O) [26]: 5 (Herbicidal rate of 90% or more (almost completely withered))
